Measured values: patent publication US6355799B1, “Substituted benzene compounds, process for their preparation, and herbicidal and defoliant compositions containing them” (ISK Americas Incorporated, priority 1997, dated 2002)

Assays:
Assay type in all cases: in vivo
[1] = test system: redroot pigweed (Amaranthus retroflexus, AMARE); test: Pre-emerge test, greenhouse herbicide activity screening; settings: rating scale 0-100, 14 days after application
Summary of the method: (§1)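 Rating: 0–100 visual injury, 14 DAA. Application: acetone, 187 l/ha, 15–1000 g ai/ha, flat-fan track sprayer with nozzle 40–45 cm above soil or canopy. Post-emerge runs used 0.25% v/v surfactant on 2–3 leaf plants.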

[2] = test system: upland rice (Oryza sp., var. Tebonnet, RICE); test: Post-emerge test, crop safety; settings: rating scale 0-100 (0 no damage, 100 complete death), 14 days after application
Summary of the method: (§2)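 Visual ratings on a 0-100 scale (0 no damage, 100 all plants dead) were taken at 14 days after treatment. Rates of 15-1000 g ai/ha in acetone, 187 l/ha, were sprayed onto soil one day after planting (pre-emerge) or onto 2-3 leaf plants with 0.25% v/v surfactant (post-emerge).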

[3] = test system: field corn (Zea mays L., var. Dekalb 535, CORN); test: Post-emerge test, crop safety; settings: rating scale 0-100 (0 no damage, 100 complete death), 14 days after application
Summary of the method: as §2

[4] = test system: upland rice (Oryza sp., var. Tebonnet, RICE); test: Pre-emerge test, crop safety; settings: rating scale 0-100, 14 days after application
Summary of the method: (§3)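 Plants grown in 10 cm pots of sandy loam mix received acetone-dissolved compounds through a moving flat-fan nozzle. Doses ranged from 15 to 1000 g ai/ha. Pre-emerge pots were seeded one day earlier, post-emerge pots 8–21 days earlier. Fourteen days on, each pot was graded 0–100 for damage.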

[5] = test system: field corn (Zea mays L., var. Dekalb 535, CORN); test: Pre-emerge test, crop safety; settings: rating scale 0-100, 14 days after application
Summary of the method: as §3

[6] = test system: sicklepod (Cassia obtusifolia, CASOB); test: Pre-emerge test, greenhouse herbicide activity screening; settings: rating scale 0-100, 14 days after application
Summary of the method: as §2

[7] = test system: barnyardgrass (Echinochloa crus-galli, ECHCG); test: as above; settings: rating scale 0-100, 14 days after application
Summary of the method: as §2

[8] = test system: johnsongrass (Sorghum halepense, SORHA); test: as above; settings: rating scale 0-100, 14 days after application
Summary of the method: as §2

[9] = test system: lambsquarters (Chenopodium album, CHEAL); test: as above; settings: rating scale 0-100, 14 days after application
Summary of the method: as §2

[10] = test system: ivyleaf morningglory (Ipomoea hederacea, IPOHE); test: as above; settings: rating scale 0-100, 14 days after application
Summary of the method: as §2

[11] = test system: green foxtail (Setaria viridis, SETVI); test: as above; settings: rating scale 0-100, 14 days after application
Summary of the method: as §2

[12] = test system: large crabgrass (Digitaria sanguinalis, DIGSA); test: as above; settings: rating scale 0-100, 14 days after application
Summary of the method: as §2

[13] = test system: velvetleaf (Abutilon theophrasti, ABUTH); test: as above; settings: rating scale 0-100, 14 days after application
Summary of the method: as §2

[14] = test system: sicklepod (Cassia obtusifolia, CASOB); test: Post-emerge test, greenhouse herbicide activity screening; settings: rating scale 0-100 (0 no damage, 100 complete death), 14 days after application
Summary of the method: as §1

[15] = test system: common ragweed (Ambrosia artemisizfolia L., AMBEL); test: as above; settings: rating scale 0-100 (0 no damage, 100 complete death), 14 days after application
Summary of the method: as §1

[16] = test system: barnyardgrass (Echinochloa crus-galli, ECHCG); test: as above; settings: rating scale 0-100 (0 no damage, 100 complete death), 14 days after application
Summary of the method: as §1

[17] = test system: johnsongrass (Sorghum halepense, SORHA); test: as above; settings: rating scale 0-100 (0 no damage, 100 complete death), 14 days after application
Summary of the method: as §1

[18] = test system: lambsquarters (Chenopodium album, CHEAL); test: as above; settings: rating scale 0-100 (0 no damage, 100 complete death), 14 days after application
Summary of the method: as §1

[19] = test system: redroot pigweed (Amaranthus retroflexus, AMARE); test: as above; settings: rating scale 0-100 (0 no damage, 100 complete death), 14 days after application
Summary of the method: as §1

[20] = test system: ivyleaf morningglory (Ipomoea hederacea, IPOHE); test: as above; settings: rating scale 0-100 (0 no damage, 100 complete death), 14 days after application
Summary of the method: as §1

[21] = test system: green foxtail (Setaria viridis, SETVI); test: as above; settings: rating scale 0-100 (0 no damage, 100 complete death), 14 days after application
Summary of the method: as §1

[22] = test system: large crabgrass (Digitaria sanguinalis, DIGSA); test: as above; settings: rating scale 0-100 (0 no damage, 100 complete death), 14 days after application
Summary of the method: as §1

[23] = test system: velvetleaf (Abutilon theophrasti, ABUTH); test: as above; settings: rating scale 0-100 (0 no damage, 100 complete death), 14 days after application
Summary of the method: as §1

Question: Which “Pre-emerge herbicidal activity, phytotoxicity rating AMARE” value ([1]; 63 g ai/ha) does the source give for `COc1c(Cl)cc(F)c(-n2c(=O)cc(C(F)(F)F)n(C)c2=O)c1CC(C)(Cl)C(=O)OCC(F)(F)C(F)F` (stereo not shown) [14-45] here?
Answer: 100

Question: And the “Pre-emerge herbicidal activity, phytotoxicity rating AMARE” value ([1]; 250 g ai/ha)?
Answer: 100

Question: And the “Post-emerge phytotoxicity rating RICE (crop damage)” value ([2]; Rate 63 g ai/ha)?
Answer: 70

Question: What about the “Post-emerge phytotoxicity rating RICE (crop damage)” value ([2]; Rate 250 g ai/ha) of the same compound?
Answer: 100

Question: And the “Post-emerge phytotoxicity rating CORN (crop damage)” value ([3]; Rate 63 g ai/ha)?
Answer: 70

Question: And the “Post-emerge phytotoxicity rating CORN (crop damage)” value ([3]; Rate 250 g ai/ha)?
Answer: 100

Question: And the “Pre-emerge phytotoxicity rating, crop damage RICE” value ([4]; 63 g ai/ha)?
Answer: 10

Question: And the “Pre-emerge phytotoxicity rating, crop damage RICE” value ([4]; 250 g ai/ha)?
Answer: 80

Question: What about the “Pre-emerge phytotoxicity rating, crop damage CORN” value ([5]; 63 g ai/ha) of the same compound?
Answer: 0

Question: What about the “Pre-emerge phytotoxicity rating, crop damage CORN” value ([5]; 250 g ai/ha) of the same compound?
Answer: 10

Question: And the “Pre-emerge herbicidal activity, phytotoxicity rating CASOB” value ([6]; 63 g ai/ha)?
Answer: 0

Question: And the “Pre-emerge herbicidal activity, phytotoxicity rating CASOB” value ([6]; 250 g ai/ha)?
Answer: 0

Question: What about the “Pre-emerge herbicidal activity, phytotoxicity rating ECHCG” value ([7]; 63 g ai/ha) of the same compound?
Answer: 0

Question: What about the “Pre-emerge herbicidal activity, phytotoxicity rating ECHCG” value ([7]; 250 g ai/ha) of the same compound?
Answer: 80

Question: What about the “Pre-emerge herbicidal activity, phytotoxicity rating SORHA” value ([8]; 63 g ai/ha) of the same compound?
Answer: 0

Question: What about the “Pre-emerge herbicidal activity, phytotoxicity rating SORHA” value ([8]; 250 g ai/ha) of the same compound?
Answer: 50

Question: What about the “Pre-emerge herbicidal activity, phytotoxicity rating CHEAL” value ([9]; 63 g ai/ha) of the same compound?
Answer: 95

Question: What about the “Pre-emerge herbicidal activity, phytotoxicity rating CHEAL” value ([9]; 250 g ai/ha) of the same compound?
Answer: 100

Question: And the “Pre-emerge herbicidal activity, phytotoxicity rating IPOHE” value ([10]; 63 g ai/ha)?
Answer: 0

Question: And the “Pre-emerge herbicidal activity, phytotoxicity rating IPOHE” value ([10]; 250 g ai/ha)?
Answer: 0

Question: What about the “Pre-emerge herbicidal activity, phytotoxicity rating SETVI” value ([11]; 63 g ai/ha) of the same compound?
Answer: 0

Question: And the “Pre-emerge herbicidal activity, phytotoxicity rating SETVI” value ([11]; 250 g ai/ha)?
Answer: 95

Question: And the “Pre-emerge herbicidal activity, phytotoxicity rating DIGSA” value ([12]; 63 g ai/ha)?
Answer: 30

Question: What about the “Pre-emerge herbicidal activity, phytotoxicity rating DIGSA” value ([12]; 250 g ai/ha) of the same compound?
Answer: 99

Question: And the “Pre-emerge herbicidal activity, phytotoxicity rating ABUTH” value ([13]; 63 g ai/ha)?
Answer: 100

Question: What about the “Pre-emerge herbicidal activity, phytotoxicity rating ABUTH” value ([13]; 250 g ai/ha) of the same compound?
Answer: 100

Question: And the “Post-emerge Herbicidal Activity, phytotoxicity rating CASOB” value ([14]; Rate 63 g ai/ha)?
Answer: 30

Question: And the “Post-emerge Herbicidal Activity, phytotoxicity rating CASOB” value ([14]; Rate 250 g ai/ha)?
Answer: 30

Question: And the “Post-emerge Herbicidal Activity, phytotoxicity rating AMBEL” value ([15]; Rate 63 g ai/ha)?
Answer: 100

Question: What about the “Post-emerge Herbicidal Activity, phytotoxicity rating AMBEL” value ([15]; Rate 250 g ai/ha) of the same compound?
Answer: 100

Question: What about the “Post-emerge Herbicidal Activity, phytotoxicity rating ECHCG” value ([16]; Rate 63 g ai/ha) of the same compound?
Answer: 100

Question: And the “Post-emerge Herbicidal Activity, phytotoxicity rating ECHCG” value ([16]; Rate 250 g ai/ha)?
Answer: 100

Question: What about the “Post-emerge Herbicidal Activity, phytotoxicity rating SORHA” value ([17]; Rate 63 g ai/ha) of the same compound?
Answer: 70

Question: And the “Post-emerge Herbicidal Activity, phytotoxicity rating SORHA” value ([17]; Rate 250 g ai/ha)?
Answer: 90

Question: What about the “Post-emerge Herbicidal Activity, phytotoxicity rating CHEAL” value ([18]; Rate 63 g ai/ha) of the same compound?
Answer: 100

Question: What about the “Post-emerge Herbicidal Activity, phytotoxicity rating CHEAL” value ([18]; Rate 250 g ai/ha) of the same compound?
Answer: 100

Question: And the “Post-emerge Herbicidal Activity, phytotoxicity rating AMARE” value ([19]; Rate 63 g ai/ha)?
Answer: 100

Question: And the “Post-emerge Herbicidal Activity, phytotoxicity rating AMARE” value ([19]; Rate 250 g ai/ha)?
Answer: 100

Question: And the “Post-emerge Herbicidal Activity, phytotoxicity rating IPOHE” value ([20]; Rate 63 g ai/ha)?
Answer: 100

Question: What about the “Post-emerge Herbicidal Activity, phytotoxicity rating IPOHE” value ([20]; Rate 250 g ai/ha) of the same compound?
Answer: 100

Question: What about the “Post-emerge Herbicidal Activity, phytotoxicity rating SETVI” value ([21]; Rate 63 g ai/ha) of the same compound?
Answer: 70

Question: What about the “Post-emerge Herbicidal Activity, phytotoxicity rating SETVI” value ([21]; Rate 250 g ai/ha) of the same compound?
Answer: 95

Question: What about the “Post-emerge Herbicidal Activity, phytotoxicity rating DIGSA” value ([22]; Rate 63 g ai/ha) of the same compound?
Answer: 90

Question: What about the “Post-emerge Herbicidal Activity, phytotoxicity rating DIGSA” value ([22]; Rate 250 g ai/ha) of the same compound?
Answer: 100

Question: And the “Post-emerge Herbicidal Activity, phytotoxicity rating ABUTH” value ([23]; Rate 63 g ai/ha)?
Answer: 100

Question: What about the “Post-emerge Herbicidal Activity, phytotoxicity rating ABUTH” value ([23]; Rate 250 g ai/ha) of the same compound?
Answer: 100
